# Results as given in patent US11000033B2, “Ketone or oxime compound, and herbicide” (NISSAN CHEMICAL CORPORATION, priority 2014, dated 2021).
# Experiments:
# Type in all cases: in vivo
# Stellaria media = test: Test Example 5: herbicidal effect by foliage application, plastic box (symbol P); settings: 320 g/ha, 3 weeks after application
# Description: (§1) Herbicidal Effect Test by Foliage Application
# (§2) Sterilized diluvial soil was placed in a plastic box having a length of 21 cm, a width of 13 cm, and a depth of 7 cm. Each of the seeds of Digitaria ciliaris, Setaria viridis, Echinochloa crus-galli var. crus-galli, Avena fatua, Alopecurus myosuroides, Lolium multiflorum Lam., Apera spica-venti, Abutilon theophrasti, Amaranthus retroflexus, Chenopodium album, Stellaria media, Galium spurium, Veronica persica, corn, soybean, rice plant, wheat, beet, and rapeseed was sowed in a spot-like manner and was covered with the soil of a thickness of about 1.5 cm. Thereafter, the plants were grown in the greenhouse of 25° C. to 30° C. After the plants were grown for 14 days, the emulsion agent of the compound of the present invention prepared in accordance with Formulation Example 2 was diluted with water so as to be a predetermined herbicide amount and the diluted emulsion agent was uniformly applied to a foliage part with a small-size spray. 3 weeks later from the herbicide application, the effect to each plant was investigated in accordance with the criteria of Test Example 1.
# Avena fatua = test: Test Example 5: herbicidal effect by foliage application, plastic box (symbol I); settings: 320 g/ha, 3 weeks after application
# Description: as §1, §2
# Setaria viridis = test: Test Example 5: herbicidal effect by foliage application, plastic box (symbol G); settings: 320 g/ha, 3 weeks after application
# Description: as §1, §2
# corn = test: Test Example 5: effect on crop by foliage application, plastic box (symbol c); settings: 320 g/ha, 3 weeks after application
# Description: as §1
# (§3) Sterilized diluvial soil was placed in a plastic box having a length of 21 cm, a width of 13 cm, and a depth of 7 cm. Each of the seeds of Digitaria ciliaris, Setaria viridis, Echinochloa crus-galli var. crus-galli, Avena fatua, Alopecurus myosuroides, Lolium multiflorum Lam., Apera spica-venti, Abutilon theophrasti, Amaranthus retroflexus, Chenopodium album, Stellaria media, Galium spurium, Veronica persica, corn, soybean, rice plant, wheat, beet, and rapeseed was sowed in a spot-like manner and was covered with the soil of a thickness of about 1.5 cm. Thereafter, the plants were grown in the greenhouse of 25° C. to 30° C.
# Chenopodium album = test: Test Example 5: herbicidal effect by foliage application, plastic box (symbol O); settings: 320 g/ha, 3 weeks after application
# Description: as §1, §2
# Cyperus difformis = test: Test Example 3: herbicidal effect by foliage application, Wagner pot (symbol E); settings: application herbicide amount 320 g/ha, Table 24
# Procedure: as §1
# After alluvial soil was placed into 1/10000 are of Wagner pot, water was poured and mixed to form a submerged condition having a water depth of 0.1 cm to 0.5 cm. Seeds of Echinochloa crus-galli var. crus-galli, Leptochloa chinensis, Cyperus difformis, and rice were sowed and the pot was placed in the greenhouse of 25° C. to 30° C. to grow the plants. After the plants were grown for 14 days, the emulsion agent of the compound of the present invention prepared in accordance with Formulation Example 2 was diluted with water so as to be a predetermined herbicide amount and the diluted emulsion agent was uniformly applied to a foliage part with a small-size spray. 3 weeks later from the herbicide application, the effect to each plant was investigated in accordance with the criteria of Test Example 1.
# rapeseed = test: Test Example 5: effect on crop by foliage application, plastic box (symbol g); settings: 320 g/ha, 3 weeks after application
# Description: as §1, §3
# [1] = tested on: directly sowed rice plant; test: Test Example 3: effect on crop by foliage application, Wagner pot (symbol b); settings: application herbicide amount 320 g/ha, Table 24
# Procedure, shortened: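 Plants are raised from seed in flooded paddy conditions: water stands 0.1–0.5 cm over alluvial soil, and the pot is kept in a greenhouse at 25–30 °C. Species sown are barnyardgrass (E. crus-galli var. crus-galli), Leptochloa chinensis, Cyperus difformis and rice.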
# Digitaria ciliaris = test: Test Example 5: herbicidal effect by foliage application, plastic box (symbol F); settings: 320 g/ha, 3 weeks after application
# Description: as §1, §2
# beet = test: Test Example 5: effect on crop by foliage application, plastic box (symbol f); settings: 320 g/ha, 3 weeks after application
# Description: as §1, §3
# Alopecurus myosuroides = test: Test Example 5: herbicidal effect by foliage application, plastic box (symbol J); settings: 320 g/ha, 3 weeks after application
# Description: as §1, §2
# rice plant = test: Test Example 5: effect on crop by foliage application, plastic box (symbol b); settings: 320 g/ha, 3 weeks after application
# Description: as §1, §3
# Veronica persica = test: Test Example 5: herbicidal effect by foliage application, plastic box (symbol R); settings: 320 g/ha, 3 weeks after application
# Description: as §1, §2
# Abutilon theophrasti = test: Test Example 5: herbicidal effect by foliage application, plastic box (symbol M); settings: 320 g/ha, 3 weeks after application
# Description: as §1, §2
# [2] = tested on: Echinochloa crus-galli var. crus-galli; test: Test Example 3: herbicidal effect by foliage application, Wagner pot (symbol H); settings: application herbicide amount 320 g/ha, Table 24
# Procedure, shortened: (§4)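 Foliar spray of a water-diluted emulsion at a predetermined herbicide amount, applied to 14-day-old plants. Seedlings were raised in flooded alluvial soil (0.1–0.5 cm water) at 25–30 °C in a greenhouse. Injury was rated after 3 weeks against fixed criteria.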
# Leptochloa chinensis = test: Test Example 3: herbicidal effect by foliage application, Wagner pot (symbol D); settings: application herbicide amount 320 g/ha, Table 24
# Procedure, shortened: as §4
# Apera spica-venti = test: Test Example 5: herbicidal effect by foliage application, plastic box (symbol L); settings: 320 g/ha, 3 weeks after application
# Description: as §1, §2
# Galium spurium = test: Test Example 5: herbicidal effect by foliage application, plastic box (symbol Q); settings: 320 g/ha, 3 weeks after application
# Description: as §1, §2
# [3] = tested on: Echinochloa crus-galli var. crus-galli; test: Test Example 5: herbicidal effect by foliage application, plastic box (symbol H); settings: 320 g/ha, 3 weeks after application
# Description: as §1, §2
# wheat = test: Test Example 5: effect on crop by foliage application, plastic box (symbol e); settings: 320 g/ha, 3 weeks after application
# Description: as §1, §3
# Lolium multiflorum Lam. = test: Test Example 5: herbicidal effect by foliage application, plastic box (symbol K); settings: 320 g/ha, 3 weeks after application
# Description: as §1, §2
# Amaranthus retroflexus = test: Test Example 5: herbicidal effect by foliage application, plastic box (symbol N); settings: 320 g/ha, 3 weeks after application
# Description: as §1, §2
# soybean = test: Test Example 5: effect on crop by foliage application, plastic box (symbol d); settings: 320 g/ha, 3 weeks after application
# Description: as §1, §3
smiles,measurement,setting,value
CCOC(=O)C(C(=O)C(C)C)C1CC(O)=C(c2c(C)cc(Br)cc2C)C1=O (mixture of isomers) [10-001],"P: Stellaria media, herbicidal effect grade",Stellaria media,0 (Herbicidal ratio of 5% or lower (almost no effect))
same,"I: Avena fatua, herbicidal effect grade",Avena fatua,1 (Herbicidal ratio of 5% or higher and lower than 20%)
same,"G: Setaria viridis, herbicidal effect grade",Setaria viridis,2 (Herbicidal ratio of 20% or higher and lower than 40%)
same,"c: corn, effect on crop grade",corn,1 (Herbicidal ratio of 5% or higher and lower than 20%)
same,"O: Chenopodium album, herbicidal effect grade",Chenopodium album,0 (Herbicidal ratio of 5% or lower (almost no effect))
same,E herbicidal effect grade,Cyperus difformis,0 (Herbicidal ratio of 5% or lower (almost no effect))
same,"g: rapeseed, effect on crop grade",rapeseed,0 (Herbicidal ratio of 5% or lower (almost no effect))
same,b (directly sowed rice plant) effect on crop grade,[1],3 (Herbicidal ratio of 40% or higher and lower than 70%)
same,"F: Digitaria ciliaris, herbicidal effect grade",Digitaria ciliaris,3 (Herbicidal ratio of 40% or higher and lower than 70%)
same,"f: beet, effect on crop grade",beet,0 (Herbicidal ratio of 5% or lower (almost no effect))
same,"J: Alopecurus myosuroides, herbicidal effect grade",Alopecurus myosuroides,1 (Herbicidal ratio of 5% or higher and lower than 20%)
same,"b: directly sowed rice plant, effect on crop grade",rice plant,2 (Herbicidal ratio of 20% or higher and lower than 40%)
same,"R: Veronica persica, herbicidal effect grade",Veronica persica,0 (Herbicidal ratio of 5% or lower (almost no effect))
same,"M: Abutilon theophrasti, herbicidal effect grade",Abutilon theophrasti,0 (Herbicidal ratio of 5% or lower (almost no effect))
same,H (Echinochloa crus-galli var. crus-galli) herbicidal effect grade,[2],5 (Herbicidal ratio of 90% or more (almost completely withered))
same,D (Leptochloa chinensis) herbicidal effect grade,Leptochloa chinensis,4 (Herbicidal ratio of 70% or higher and lower than 90%)
same,"L: Apera spica-venti, herbicidal effect grade",Apera spica-venti,0 (Herbicidal ratio of 5% or lower (almost no effect))
same,"Q: Galium spurium, herbicidal effect grade",Galium spurium,0 (Herbicidal ratio of 5% or lower (almost no effect))
same,"H: Echinochloa crus-galli var. crus-galli, herbicidal effect grade",[3],4 (Herbicidal ratio of 70% or higher and lower than 90%)
same,"e: wheat, effect on crop grade",wheat,0 (Herbicidal ratio of 5% or lower (almost no effect))
same,"K: Lolium multiflorum Lam., herbicidal effect grade",Lolium multiflorum Lam.,3 (Herbicidal ratio of 40% or higher and lower than 70%)
same,"N: Amaranthus retroflexus, herbicidal effect grade",Amaranthus retroflexus,0 (Herbicidal ratio of 5% or lower (almost no effect))
same,"d: soybean, effect on crop grade",soybean,0 (Herbicidal ratio of 5% or lower (almost no effect))
